Measurements: article PMC8844858, “Crystal structure and functional analysis of mycobacterial erythromycin resistance methyltransferase Erm38 reveals its RNA-binding site” (The Journal of Biological Chemistry, 2022)
Like-named read-outs stand apart in the source and are kept apart here.

Biological target: T1, Erm38 (Mycolicibacterium smegmatis, UniProt Q79N53)
T1 construct: gene erm(38); truncated, residues 13-261 of 386 (disordered termini removed), about 30 kDa; synthetic codon-optimised gene in pNIC28-Bsa4, E. coli BL21(DE3)-T1R Rosetta; IMAC, cation exchange and size exclusion
Settings: 2.25 A, SAM-binding site

T1 sequence (Q79N53 entry or part of it): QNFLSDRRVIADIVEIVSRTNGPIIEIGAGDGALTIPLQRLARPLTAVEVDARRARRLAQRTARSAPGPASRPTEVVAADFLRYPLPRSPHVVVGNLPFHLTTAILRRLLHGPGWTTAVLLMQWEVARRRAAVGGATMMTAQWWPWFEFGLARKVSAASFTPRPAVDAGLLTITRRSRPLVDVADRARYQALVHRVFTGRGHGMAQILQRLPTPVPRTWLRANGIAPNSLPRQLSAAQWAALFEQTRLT

SMILES | X-ray crystal structure (soak) (2 mM sinefungin soaked 24 h into native crystals) | X-ray crystal structure (soak) (2 mM SAM soaked 24 h into native crystals)
Nc1ncnc2c1ncn2[C@@H]1O[C@H](C[C@@H](N)CC[C@H](N)C(=O)O)[C@@H](O)[C@H]1O [SFG, sinefungin] | cocrystals with either SAM or the isosteric sinefungin inhibitor were obtained by soaking | –
C[S+](CC[C@H](N)C(=O)O)C[C@H]1O[C@@H](n2cnc3c(N)ncnc32)[C@H](O)[C@@H]1O (some centres unmarked) [SAM] | – | cocrystals with either SAM or the isosteric sinefungin inhibitor were obtained by soaking
